Values quoted from earlier work in patent US12721837B2, “Stable pharmaceutical compositions of clonidine” (AZURITY PHARMACEUTICALS, INC., priority 2021, dated 2026).

Key:
[1] = after oral administration

- Solubility in water: freely soluble
- Absorption from the gastrointestinal tract [1]: almost completely absorbed
Compound: Clc1cccc(Cl)c1N=C1NCCN1 [Clonidine, N-(2,6-dichlorophenyl)-4,5-dihydro-1H-imidazol-2-amine]
